The source made the active and inactive calls.
Key:
[1] = P. falciparum late gametocyte killing, dose response, luminescence (AID 1117278); format: functional, cell-based;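 also: gametocytes exposed to compound for 24 hours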
[2] = Jurkat T cell cytotoxicity, dose response, cytotoxicity control for P. falciparum gametocyte viability project, luminescence (AID 1117277); format: functional, cell-based;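 also: potency reflects loss of cellular ATP meaning fewer viable cells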
fMet-Leu-Phe receptor = fMet-Leu-Phe receptor (Homo sapiens, UniProt P21462); assay: FPR ligands, dose response (AID 519); format: functional
[3] = inhibitors of PGC1a acetylation in cells, dose response, cell-based, cherry-picked samples (AID 720514); format: functional;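 also: potency may reflect raised or lowered acetylation signal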
Paired box protein Pax-8 = Paired box protein Pax-8 (Homo sapiens, UniProt Q06710); assay: inhibitors of PAX8-driven TPO luciferase reporter, dose response, RMG-I cells, cherry-pick (AID 687027); format: functional, cell-based;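 also: luciferase reporter driven by Pax8 target thyroperoxidase promoter measured by SteadyGlo luminescence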
[4] = A549 cell cytotoxicity, dose response, cytotoxicity control, plate reader, cherry-pick, antagonist series (AID 743412); format: functional, cell-based
[5] = HepG2 cell cytotoxicity, dose response, cytotoxicity control, plate reader, cherry-pick, antagonist series (AID 743416); format: functional, cell-based
[6] = LGR2 antagonists, dose response, cell-based, HEK293, CRE-luciferase reporter, cherry pick, set 2 (AID 743343); format: functional;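 also: transfected cells were stimulated with diluted bursicon conditioned medium after compound addition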
[7] = non-specific cell cytotoxicity, dose response, cytotoxicity control for PAX8 inhibitor project, plate reader, dry powder samples (AID 743021); format: functional, cell-based
[8] = MC4R antagonists, dose response, counter-screen for LGR2 antagonist project, cell-based, plate reader, cherry pick (AID 743444); format: functional;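 also: transfected HEK 293 cells stimulated with alpha-MSH peptide; potency of inhibitors of the alpha-MSH evoked signal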
[9] = HEK293 cell cytotoxicity, dose response, cytotoxicity control, plate reader, cherry-picked samples (AID 743446); format: functional, cell-based
[10] = HeLa 2N DNA content increase, dose response, cell-based, IC50 (AID 1117349); format: functional
[11] = Concentration-dependent survival of SW480 colon cancer line, luminescence detection with CellTiter-Glo, half-maximal inhibitory concentration (AID 1117338); format: functional
[12] = RKO cell viability reduction, dose response, CellTiter-Glo luminescence (AID 1117322); format: functional
[13] = cytotoxicity toward HCT116 cells – cell-based, CellTiter-Glo luminescence, IC50, dose response (AID 1117332); format: functional; settings: HCT-116
[14] = SNU-C1 cell viability reduction, dose response, CellTiter-Glo luminescence (AID 1117323); format: functional, cell-based
[15] = cytotoxicity toward Colo320 cells – cell-based, CellTiter-Glo luminescence, IC50, dose response (AID 1117334); format: functional; settings: COLO 320
[16] = HeLa 4N DNA content increase, dose response, cell-based, IC50 (AID 1117351); format: functional
[17] = cytotoxicity toward HT-29 cells – cell-based, CellTiter-Glo luminescence, IC50, dose response (AID 1117330); format: functional
[18] = CellTiter-Glo luminescent dose response of DLD-1 viability loss (AID 1117352); format: functional
[19] = HCT116 cell viability decrease, GSK3B pretreatment – CellTiter-Glo, IC50, dose response (AID 1117339); format: functional; settings: HCT-116
[20] = P. falciparum Dd2 growth inhibitors, dose response, SYBR Green, cherry-picked samples (AID 1159567); format: functional, cell-based
[21] = HepG2 cell cytotoxicity, dose response, cytotoxicity control, cherry-picked samples (AID 1159577); format: functional, cell-based
[22] = molecular target: 1-phosphatidylinositol 4,5-bisphosphate phosphodiesterase gamma-1 (Homo sapiens, UniProt P19174); assay: Counterscreen for inhibitors of phospholipase C isozymes (PLC-B3): Fluorescence-based biochemical high throughput dose response assay to identify inhibitors of phospholipase C isozymes (PLC-gamma1).
[23] = molecular target: 1-phosphatidylinositol 4,5-bisphosphate phosphodiesterase beta-3 (Homo sapiens, UniProt Q01970); assay: Fluorescence-based biochemical high throughput dose response assay to identify inhibitors of phospholipase C isozymes (PLC-B3).
[24] = P. falciparum 3D7-ScDHODH growth inhibitors, dose response, SYBR Green, dry powder samples (AID 1159570); format: functional, cell-based;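 also: parasite growth measured after 72 hours of compound exposure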
[25] = HepG2 cell cytotoxicity, dose response, cytotoxicity control, plate reader, dry powder samples (AID 1159569); format: functional, cell-based;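 also: inhibitor potency with signal falling toward the positive control level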
[26] = P. falciparum Dd2 growth inhibitors, dose response, SYBR Green, dry powder samples (AID 1159566); format: functional, cell-based;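 also: potency for growth inhibition with lower SYBR green DNA signal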
[27] = P. falciparum ATP4 D1247Y mutant growth inhibitors, dose response, NITD609-resistant line, SYBR Green, dry powder (AID 1159571); format: functional, cell-based;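 also: parasites synchronized at ring stage by sorbitol before testing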

Sequence of fMet-Leu-Phe receptor (P21462 whole entry): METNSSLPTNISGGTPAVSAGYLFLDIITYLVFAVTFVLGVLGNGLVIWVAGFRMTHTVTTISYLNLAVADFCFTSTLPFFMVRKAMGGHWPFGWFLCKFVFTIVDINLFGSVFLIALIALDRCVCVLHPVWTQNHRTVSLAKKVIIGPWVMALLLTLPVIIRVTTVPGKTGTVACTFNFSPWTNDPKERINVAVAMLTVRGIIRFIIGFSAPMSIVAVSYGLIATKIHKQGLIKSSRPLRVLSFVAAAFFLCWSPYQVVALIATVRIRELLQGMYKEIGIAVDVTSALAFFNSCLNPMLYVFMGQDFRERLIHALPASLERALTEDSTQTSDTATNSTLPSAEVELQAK
Sequence of Paired box protein Pax-8 (Q06710 whole entry): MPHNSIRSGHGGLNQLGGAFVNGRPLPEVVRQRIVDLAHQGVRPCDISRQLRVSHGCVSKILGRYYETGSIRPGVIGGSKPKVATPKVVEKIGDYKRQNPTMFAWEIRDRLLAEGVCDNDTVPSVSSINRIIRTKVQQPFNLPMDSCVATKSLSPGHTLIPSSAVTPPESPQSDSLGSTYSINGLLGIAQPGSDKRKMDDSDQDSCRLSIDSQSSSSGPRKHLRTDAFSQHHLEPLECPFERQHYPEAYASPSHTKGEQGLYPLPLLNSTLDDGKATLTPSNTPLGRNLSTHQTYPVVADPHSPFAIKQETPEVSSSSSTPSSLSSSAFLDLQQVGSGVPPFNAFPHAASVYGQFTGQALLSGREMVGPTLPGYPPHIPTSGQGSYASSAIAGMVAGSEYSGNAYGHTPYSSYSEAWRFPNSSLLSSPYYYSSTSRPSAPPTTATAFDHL
Sequence of 1-phosphatidylinositol 4,5-bisphosphate phosphodiesterase beta-3 (Q01970 whole entry): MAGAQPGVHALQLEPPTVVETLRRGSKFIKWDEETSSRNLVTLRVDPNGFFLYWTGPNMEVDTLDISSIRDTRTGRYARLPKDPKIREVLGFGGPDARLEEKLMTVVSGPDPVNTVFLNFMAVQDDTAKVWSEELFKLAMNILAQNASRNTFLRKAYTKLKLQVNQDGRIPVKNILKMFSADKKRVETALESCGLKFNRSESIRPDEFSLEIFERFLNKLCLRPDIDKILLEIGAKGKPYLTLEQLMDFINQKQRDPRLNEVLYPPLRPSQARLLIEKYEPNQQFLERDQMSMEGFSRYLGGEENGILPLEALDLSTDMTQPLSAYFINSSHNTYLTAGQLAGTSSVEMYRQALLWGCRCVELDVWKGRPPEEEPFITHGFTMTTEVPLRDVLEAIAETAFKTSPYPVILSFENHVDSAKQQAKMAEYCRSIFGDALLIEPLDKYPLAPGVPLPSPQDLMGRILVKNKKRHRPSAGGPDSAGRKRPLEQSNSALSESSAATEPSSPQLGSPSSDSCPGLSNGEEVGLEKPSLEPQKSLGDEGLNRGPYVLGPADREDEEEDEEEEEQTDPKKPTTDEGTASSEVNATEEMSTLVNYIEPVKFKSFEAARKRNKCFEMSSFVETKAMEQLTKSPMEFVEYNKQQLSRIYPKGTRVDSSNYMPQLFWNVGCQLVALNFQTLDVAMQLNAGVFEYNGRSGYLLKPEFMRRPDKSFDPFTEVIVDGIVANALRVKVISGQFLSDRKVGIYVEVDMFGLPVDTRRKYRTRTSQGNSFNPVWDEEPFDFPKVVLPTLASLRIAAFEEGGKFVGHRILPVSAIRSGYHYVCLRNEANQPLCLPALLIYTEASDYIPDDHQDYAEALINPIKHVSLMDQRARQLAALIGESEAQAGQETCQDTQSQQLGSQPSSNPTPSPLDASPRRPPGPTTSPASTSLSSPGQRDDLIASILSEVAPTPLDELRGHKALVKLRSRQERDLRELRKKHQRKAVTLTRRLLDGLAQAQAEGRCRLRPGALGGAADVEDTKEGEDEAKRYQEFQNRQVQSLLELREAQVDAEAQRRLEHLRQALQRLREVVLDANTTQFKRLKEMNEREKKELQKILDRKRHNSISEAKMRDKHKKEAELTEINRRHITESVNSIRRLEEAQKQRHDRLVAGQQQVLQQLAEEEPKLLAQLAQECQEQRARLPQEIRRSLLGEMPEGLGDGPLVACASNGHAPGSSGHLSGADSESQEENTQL
Sequence of 1-phosphatidylinositol 4,5-bisphosphate phosphodiesterase gamma-1 (P19174 whole entry): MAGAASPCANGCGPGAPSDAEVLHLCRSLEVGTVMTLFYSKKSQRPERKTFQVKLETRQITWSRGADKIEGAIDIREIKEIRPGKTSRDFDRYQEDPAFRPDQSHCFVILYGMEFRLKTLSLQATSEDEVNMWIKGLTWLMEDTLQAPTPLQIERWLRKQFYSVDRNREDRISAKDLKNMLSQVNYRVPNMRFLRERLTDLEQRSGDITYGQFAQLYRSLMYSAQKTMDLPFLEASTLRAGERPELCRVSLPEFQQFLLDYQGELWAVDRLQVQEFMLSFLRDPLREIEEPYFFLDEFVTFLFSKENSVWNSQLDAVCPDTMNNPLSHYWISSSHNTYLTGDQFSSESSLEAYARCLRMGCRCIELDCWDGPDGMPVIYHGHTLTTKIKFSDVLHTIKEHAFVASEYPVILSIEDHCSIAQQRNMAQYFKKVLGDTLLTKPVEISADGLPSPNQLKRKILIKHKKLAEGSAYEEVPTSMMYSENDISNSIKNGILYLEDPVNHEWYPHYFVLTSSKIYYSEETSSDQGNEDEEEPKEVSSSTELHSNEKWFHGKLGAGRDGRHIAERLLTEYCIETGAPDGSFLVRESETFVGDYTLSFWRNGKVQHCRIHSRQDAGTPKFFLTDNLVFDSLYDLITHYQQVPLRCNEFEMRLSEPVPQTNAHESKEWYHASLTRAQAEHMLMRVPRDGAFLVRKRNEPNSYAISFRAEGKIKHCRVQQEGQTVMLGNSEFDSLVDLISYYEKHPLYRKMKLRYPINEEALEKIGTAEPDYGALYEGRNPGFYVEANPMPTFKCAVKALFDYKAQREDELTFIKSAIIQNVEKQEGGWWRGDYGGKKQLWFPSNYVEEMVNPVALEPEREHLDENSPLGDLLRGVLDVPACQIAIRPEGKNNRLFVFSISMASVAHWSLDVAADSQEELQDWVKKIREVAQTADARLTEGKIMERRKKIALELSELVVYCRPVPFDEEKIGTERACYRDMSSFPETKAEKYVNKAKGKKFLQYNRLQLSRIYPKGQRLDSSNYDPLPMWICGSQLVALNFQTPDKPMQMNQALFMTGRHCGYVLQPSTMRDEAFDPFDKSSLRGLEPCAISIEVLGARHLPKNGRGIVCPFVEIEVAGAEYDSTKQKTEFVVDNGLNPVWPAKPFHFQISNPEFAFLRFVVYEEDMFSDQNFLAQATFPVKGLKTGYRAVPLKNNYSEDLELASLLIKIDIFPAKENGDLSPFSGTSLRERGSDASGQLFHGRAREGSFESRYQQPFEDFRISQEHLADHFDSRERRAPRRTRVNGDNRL

In the case of Cn1c(CCNC(=O)C2CCCCC2)nc2cc(NC(=O)c3cccs3)ccc21, the IC50 [1] is reported as > 109 µM (inactive) and the IC50 [2] is reported as > 83.3 µM (inactive).
For Cc1ccc(NC(=O)c2oc3ccc(S(=O)(=O)N4CCOCC4)cc3c2C)cc1C, the Ki (fMet-Leu-Phe receptor) was > 66.7 µM (inactive).
With Cc1nc(O)c(C(=O)/C=C/c2ccccc2)c2c1CCCC2 the AC50 [3] was 8.12 µM (active).
For COc1ccc(-n2nnnc2C(CCc2ccccc2)N2CCC(n3c(O)nc4ccccc43)CC2)cc1 (configuration not stated), the AC50 (Paired box protein Pax-8) was 7.54 µM (active), the AC50 [3] was 21.4 µM (active) and the AC50 [4] was 14.7 µM (active). For the same compound, the AC50 [5] was > 52 µM (inactive), the AC50 [6] was 11.3 µM (active) and the AC50 [7] was 24.5 µM (active). The AC50 [8] was 9.43 µM (active) and the AC50 [9] was 10.1 µM (active).
In the case of CN1CCC(Nc2ncc3ncnc(Nc4ccc(F)c(Cl)c4)c3n2)CC1, the IC50 [10] is reported as > 10 µM (inactive), the IC50 [11] is reported as 2.35 µM (active) and the IC50 [12] is reported as 3.17 µM (active). For the same compound, the IC50 [13] was > 20 µM (inactive), the IC50 [14] was 12 µM (inactive) and the IC50 [15] was 11.7 µM (inactive). The IC50 [16] was > 10 µM (inactive), the IC50 [17] was 4 µM (active) and the IC50 [18] was 2.29 µM (active). The IC50 [19] was 3.38 µM (active).
With COc1ccccc1CN1C[C@@H]2N[C@H](C1)[C@@H]2c1ccc(-c2ccccc2OC)cc1 the AC50 [20] was 4.29 µM (active) and the AC50 [21] was 11.6 µM (active).
In the case of COC(=O)C(C(=O)OC)[C@H]1C=C[C@@H](C(=O)NS(=O)(=O)c2ccc(C)cc2)N(C(C)=O)C1, the IC50 [22] is reported as 2.03 µM (active) and the IC50 [23] is reported as > 122 µM (inactive).
In the case of C[C@@H]1CN([C@@H](C)CO)C(=O)c2cccc(NC(=O)c3nc4ccccc4s3)c2O[C@@H]1CN(C)C(=O)Nc1cccc2ccccc12, the AC50 [24] is reported as 2.73 µM (active), the AC50 [25] is reported as 71.7 µM (active) and the AC50 [20] is reported as 2.98 µM (active). For the same compound, the AC50 [26] was 2.51 µM (active) and the AC50 [27] was 2 µM (active).
In the case of O=C(c1ccc2c(c1)OCO2)N1CC(=O)N2[C@H](CO)[C@H](c3ccc(C#Cc4ccccc4)cc3)[C@H]2C1, the AC50 [24] is reported as 5.73 µM (active), the AC50 [25] is reported as 25 µM (active) and the AC50 [20] is reported as 2.52 µM (active). For the same compound, the AC50 [26] was 1.68 µM (active), the AC50 [21] was 26.3 µM (active) and the AC50 [27] was 1.93 µM (active).
In the case of O=C(O)c1ccc(-n2nc(-c3ccccc3O)nc2-c2ccccc2O)cc1 [DEFERASIROX], the IC50 [10] is reported as > 10 µM (inactive), the IC50 [11] is reported as 0.0776 µM (active) and the IC50 [12] is reported as 0.1 µM (active). The IC50 [13] was 0.438 µM (active), the IC50 [14] was 0.233 µM (active) and the IC50 [15] was 0.409 µM (active). The IC50 [16] was > 10 µM (inactive), the IC50 [17] was 0.516 µM (active) and the IC50 [18] was 0.651 µM (active). For the same compound, the IC50 [19] was 0.242 µM (active).

Reference: ChEMBL document CHEMBL1201862, “PubChem BioAssay data set” (2004)
